Read-outs that look alike come from different tables or passages of the source.
What was measured:
[1] = tested on: human prostate cancer cells; settings: cited from earlier work
[2] = tested on: Connexin43 (Cx43); assay: Relative Cx43 protein levels by Western blot in C3H10T1/2 cells (Example 3); format: cell-based; settings: Mus musculus, C3H 10T1/2, 168 h, read-out: Fold induction of Cx43 expression
Description: Treatments/Compounds._TTNPB (Biomol, Plymouth Meeting, Pa.); stock 5×10^−6M in acetone, diluted 1:500 in culture media (final 10^−8 M in 0.2% acetone). Lycophyll (All-trans, 95% pure, Hawaii Biotech, Inc., Aiea, Hi.); stocks 10^−2 M and 10^−3 M in tetrahydroftiran (THF; Sigma, St. Louis, Mo.) diluted 1:1000 and stirred into culture media immediately before treatment (final 10^−5 M and 10^−6 M in 0.1% THF). Lycopene (92.7% pure, Chromadex, Inc., Santa Ana, Calif.); stocks 10^−2 M and 10^−3 M in tetrahydrofuran (Sigma, St. Louis, Mo.) diluted 1:1000 and stir into culture media immediately before treatment (final 10^−5 M and 10^−6 M in 0.1% THF). […]
SDS-PAGE Electrophoresis, Transfer and Immunodetection. […] Lysates were sonicated and protein concentrations quantified using the BCA protein determination assay (Pierce, Rockford, Ill.). […] Protein standards were utilized to confirm molecular weight of detected protein (SeeBlue, Invitrogen, Carlsbad, Calif.). […] Cx43 protein was detected according to the manufacturer's instructions using the WesternBreeze Immunodetection Kit (Invitrogen, Carlsbad, Calif.) and a rabbit primary antibody reactive against the cytoplasmic tail of Cx43 (1:2000, Sigma, St. Louis, Mo.).
Quantification of Relative Western Blot Cx43 Protein Levels. […]

[3] = tested on: 10T1/2 cells; format: cell-based, Mouse; settings: for % Inhibition of MCA-induced transformation: 4 week period; for Foci/dish (mean Type II + Type III foci, 24 dishes): 4 week period after MCA
Description: Inhibition of MCA-induced neoplastic transformation in 10T1/2 cells. Cells were initiated with methylcholanthrene (MCA) […] (Sigma, St. Louis, Mo.) in acetone for 24 hours. Potential inhibitors of neoplastic transformation were added 7 days after removal of carcinogen as indicated and were renewed weekly by adding fresh medium supplemented with the appropriate drug for four weeks after removal of the carcinogen. The cultures were fixed and stained as described above. A total of 24 dishes of cells were used per treatment group. Type II and III foci were identified and then quantitated as described in Bertram et al., 1990, which is incorporated herein by reference.
Statistical analysis. Transformation data was analyzed by one-tailed, two-sample t-tests that incorporated unequal variances. The scrape-loading data was analyzed by paired t-tests.

[4] = tested on: 10T1/2 cells; assay: Gap junctional communication, scrape-loading dye transfer assay; format: cell-based, Mouse; settings: 7 days
Description: Gap junctional communication assay. Junctional permeability was assayed by the scrape-loading dye transfer assay essentially as described in El-Fouly et al., 1987, which is incorporated herein by reference. Briefly, confluent cultures of 10T1/2 cells grown in 60 mm dishes were treated with the indicated compounds for 7 days. The treated cells were washed with Ca^+2-free phosphate-buffered saline (PBS). 1.5 ml of Lucifer Yellow CH (Sigma, St. Louis, Mo.) 0.2% in PBS was then added, and linear cuts were made on the monolayer using a surgical scalpel. The cultures were incubated for 2 minutes at 37° C. then rinsed thoroughly with PBS. The cultures were then fixed with 2 ml of 5% formaldehyde in PBS. Images were digitally quantitated by intensity thresholding using the SigmaScan software program (Jandel Scientific, San Rafael, Calif.).

[5] = tested on: CX43; assay: CX43 plaques by indirect immunofluorescence in 10T1/2 cells; format: cell-based, Mouse; settings: 4 days
Description: Analysis of CX43 protein by indirect immunofluorescence. Expression and assembly of CX43 into plaques was assessed by immunofluorescence staining essentially as described in Rogers et al, 1990, which is incorporated herein by reference. Briefly, confluent cultures of 10T1/2 cells were grown on Permanox plastic 4-chamber slides (Nalge Nunc International, Naperville, Ill.) and treated for 4 days as described above. Cells were fixed with −20° C. methanol overnight, washed in buffer, blocked in 1% bovine serum albumin (Sigma, St. Louis, Mo.) in PBS, incubated with the rabbit anti-CX43 antibody, and visualized with Alexa568 conjugated anti-rabbit secondary antibody (Molecular Probes, Eugene, Oreg.). Images were acquired with a Zeiss Axioplan microscope and a Roper Scientific cooled CCD camera.

[6] = Determination of aqueous solubility/dispersibility; format: physicochemical
Description: (§1) Determination of aqueous solubility/dispersibility. 30.13 mg of 3 was added to 1 mL of USP-purified water. The sample was rotated for 2 hours, then centrifuged for 5 minutes. After centrifuging, solid was visible in the bottom of the tube. A 125-μL aliquot of the solution was then diluted to 25 mL. The sample was analyzed by UV/Vis spectroscopy at 436 nm, and the absorbance was compared to a standard curve compiled from 4 standards of known concentration. The concentration of the original supernatant was calculated to be 2.85 mg/mL and the absorptivity was 36.94 AU*mL/cm*mg. Slight error may have been introduced by the small size of the original aliquot.
as §1, with “Next, 30.80” for “Determination of aqueous solubility/dispersibility. 30.13”, “9” for “3”, “UViis” for “UV/Vis”, “411” for “436”, “The concentration of the original supernatant was calculated to be 2.85 mg/mL and the absorptivity was 36.94 AU*mL/cm*mg.” left out
Determination of aqueous solubility/dipsersibility of pAST. 23.70 mg of tetrasodium diphosphate astaxanthin was added to 1 ml of USP purified water. The mixture was stirred for 2 hours, and centrifuged for 5 minutes. The solution was diluted in water and analyzed by UV/vis spectroscopy at 480 nm and absorbance was compared to a standard curve compiled from 4 standards of known concentration.

[7] = tested on: CX43 protein; assay: CX43 protein expression in 10T1/2 cells by Western blotting (Example 1); format: cell-based, Mouse; settings: 4 days
Description: Cell lines and culture conditions. Mouse embryonic fibroblast 10T1/2 cells were cultured in Eagle's basal medium with Earle's salts supplemented with 4% fetal calf serum (Atlanta Biologicals, Norcross, Ga.), 25 μg/ml gentamicin sulfate (Sigma, St. Louis, Mo.), and passaged by trypsin/EDTA (Gibco Invitrogen, Carlsbad, Calif.) and maintained at 37° C. in a 5% CO2 atmosphere. The cells were allowed to grow until a monolayer was formed. The confluent cells were treated 7 days after seeding, unless otherwise indicated. dAST was prepared in a formulation of 20% EtOH and sterile water (0.2% final EtOH ) to minimize supramolecular aggregation, and the final concentration of EtOH in culture medium was 0.2%. CTX was dissolved in THF and added to media. TTNPB was dissolved in acetone (Sigma, St. Louis, Mo.) and cultures received a final acetone concentration of 0.1%.
Analysis of CX43 protein expression. Expression of CX43 protein in 10T1/2 cells was assessed by Western blotting. 10T1/2 cell monolayers were treated with the indicated carotenoid derivatives or with retinoids (as a positive control for the modulation of CX43 expression) 7 days after seeding in 100 mm dishes (Fisher Scientific, Pittsburgh, Pa.). Fours days after the drug was added to the cells, the cells were harvested, total cellular protein was isolated and the total protein concentration thereof was determined using a commercially available Protein Assay Reagent kit (Pierce Chemical Co., Rockford, Ill.). 40 μg of total cellular protein was resolved on an SDS-PAGE gel, transferred to a nitrocellulose membrane, and analyzed by Western blotting using the NuPage Western blotting kit (Invitrogen, Carlsbad, Calif.). CX43 was detected using a rabbit polyclonal antibody (Zymed, San Francisco, Calif.) raised against a synthetic polypeptide corresponding to the C-terminal domain common to mouse, human and rat CX43. Equal protein loafing was verified by immunoblotting for GAPDH, the expression of which is unaffected by treatment with retinoids or carotenoids, using a rabbit polyclonal GAPDH antibody was also used (Zymed, San Francisco, Calif.). CX43 and GAPDH immunoreactive bands were visualized by chemiluminescence using an anti-rabbit HRP-conjugated secondary antibody (Pierce Chemical Co., Rockford, Ill.). Images were obtained by exposure to X-ray film as previously described and scanned for digital analysis on the Fluoro-S Imager (Bio-Rad, Richmond, Calif.).

For `CC(C)c1ccc2c(c1)c(SC(C)(C)C)c(CC(C)(C)C(=O)O)n2Cc1ccc(Cl)cc1` [MK886], the “apoptosis of prostate cancer cells” value ([1]; Ghosh et al.) is listed as “massive apoptosis” and the “cells in culture killed” value ([1]; concentration of 10 mM) is listed as “more than 90%”.

With `CC(C)=CCC/C(C)=C/C=C/C(C)=C/C=C/C(C)=C/C=C/C=C(C)/C=C/C=C(C)/C=C/C=C(\C)CCC=C(C)C` [lycopene, reference compound] the fold induction at 1 µM [2] was 1.55 and the fold induction at 10 µM [2] was 1.51.

For `CC1=C(/C=C/C(C)=C/C=C/C(C)=C/C=C/C=C(C)/C=C/C=C(C)/C=C/C2=C(C)C(=O)[C@@H](O)CC2(C)C)C(C)(C)C[C@H](O)C1=O` [AST, astaxanthin, reference compound], the neoplastic transformation ([3]; 10^−5 M for 4 weeks) was “strongly inhibited”, the “% Inhibition of MCA-induced transformation” value (“% Inhibition” for short) ([3]; 10^−6 M) was 41% and the “Foci/dish (mean Type II + Type III foci, 24 dishes)” value ([3]; 10^−6 M) was 0.96 foci/dish. The “% Inhibition” value ([3]; 10^−7 M) was 39%, the “Foci/dish (mean Type II + Type III foci, 24 dishes)” value ([3]; 10^−7 M) was 1.00 foci/dish and the “% Inhibition” value ([3]; 10^−8 M) was 41%. For the same compound, the “Foci/dish (mean Type II + Type III foci, 24 dishes)” value ([3]; 10^−8 M) was 0.96 foci/dish, the foci/dish ([3]; all concentrations tested) was 0.98 foci/dish and the GJIC dye transfer ([4]; 10^−6 M) was “below that observed in untreated control cultures”. The GJIC dye transfer ([4]; 10^−7 M) was “roughly equivalent to that achieved in cultures treated with pAST”, the “CX43 immunoreactive plaques at regions of cell/cell apposition” value ([5]; 10^−6 M) was “few immunoreactive plaques” and the “CX43 immunoreactive plaques / gap junction assembly” value ([5]; 10^−8 M) was “comparable to untreated cultures”. The water dispersibility [6] was “insoluble in water”, the “CX43 protein induction versus solvent-treated controls” value ([7]; 10^−5 M) was “no change” and the “CX43 protein induction versus solvent-treated controls” value ([7]; 10^−6 M) was “No change”. The “CX43 protein induction versus solvent-treated controls” value ([7]; 10^−7 M) was “No change”.
